Data set [1] has as its system rgRSV224 virus. The experiment in a line: Antiviral activity: rgRSV224 (GFP) replication in HeLa cells. The conditions noted are these: human respiratory syncytial virus, 72 h, read-out: RSV HELA pEC50 (converted).
Procedure: Black 384-well clear-bottom microtiter plates (Corning, Amsterdam, The Netherlands) were filled via acoustic drop ejection using the echo liquid handler (Labcyte, Sunnyvale, Calif.). 200 nL of compound stock solutions (100% DMSO) were transferred to the assay plates. 9 serial 4-fold dilutions of compound were made, creating per quadrant the same compound concentration. The assay was initiated by adding 10 μL of culture medium to each well (RPMI medium without phenol red, 10% FBS-heat inactivated, 0.04% gentamycin (50 mg/mL). All addition steps are done by using a multidrop dispenser (Thermo Scientific, Erembodegem, Belgium). Next, rgRSV224 virus (MOI=1) diluted in culture medium was added to the plates. rgRSV224 virus is an engineered virus that includes an additional GFP gene (Hallak L K, Spillmann D, Collins P L, Peeples M E. Glycosaminoglycan sulfation requirements for respiratory syncytial virus infection; Journal of virology (2000), 74(22), 10508-13) and was in-licensed from the NIH (Bethesda, Md., USA). Finally, 20 μL of a HeLa cell suspension (3,000 cells/well) were plated. Medium, virus- and mock-infected controls were included in each test. The wells contain 0.05% DMSO per volume. Cells were incubated at 37° C. in a 5% CO2 atmosphere. Three days post-virus exposure, viral replication was quantified by measuring GFP expression in the cells by an in house developed MSM laser microscope (Tibotec, Beerse, Belgium). The EC50 was defined as the 50% inhibitory concentration for GFP expression. In parallel, compounds were incubated for three days in a set of white 384-well microtiter plates (Corning) and the cytotoxicity of compounds in HeLa cells was determined by measuring the ATP content of the cells using the ATPlite kit (Perkin Elmer, Zaventem, Belgium) according to the manufacturer's instructions. The CC50 was defined as the 50% concentration for cytotoxicity.
Data set [2] can be described thus: Cytotoxicity in HeLa cells (ATPlite, CC50) used for selectivity index. The conditions noted are these: human. A general note: Cellular ATP, detected with luciferase, serves as a proxy for viable cell number.
Procedure: The wells contain 0.05% DMSO per volume. Cells were incubated at 37° C. in a 5% CO2 atmosphere. […] In parallel, compounds were incubated for three days in a set of white 384-well microtiter plates (Corning) and the cytotoxicity of compounds in HeLa cells was determined by measuring the ATP content of the cells using the ATPlite kit (Perkin Elmer, Zaventem, Belgium) according to the manufacturer's instructions. The CC50 was defined as the 50% concentration for cytotoxicity.

Each structure is given as a SMILES string.

For `CNC(=O)N1CCC2(CC1)C(=O)N(Cc1nc3cc(Cl)ccc3n1CCCC#N)c1cnccc12` [Co. No. 26, 1′-[[5-chloro-1-(3-cyanopropyl)benzimidazol-2-yl]methyl]-N-methyl-2′-oxo-spiro[piperidine-4,3′-pyrrolo[2,3-c]pyridine]-1-carboxamide], the melting point (in general, the temperature, or range, at which the solid turns liquid) came to 99.81 °C. The EC50 in data set [1] is 0.055 nM. In addition, the selectivity ratio at 3 days in data set [2] was > 1.82e+06.

Turning to `CC(C)NC(=O)N1CCC2(CC1)C(=O)N(Cc1cc3cc(Cl)ccc3n1CCCS(C)(=O)=O)c1cnccc12` [Co. No. 27, 1′-[[5-chloro-1-(3-methylsulfonylpropyl)indol-2-yl]methyl]-N-isopropyl-2′-oxo-spiro[piperidine-4,3′-pyrrolo[2,3-c]pyridine]-1-carboxamide], the EC50 in data set [1] was 0.257 nM. Moreover, in data set [2], the selectivity ratio at 3 days came to 300000.

Regarding `CC(C)NC(=O)N1CCC2(CC1)C(=O)N(Cc1cc3cc(Cl)ccc3n1CCCC#N)c1cnccc12` [Co. No. 28, 1′-[[5-chloro-1-(3-cyanopropyl)indol-2-yl]methyl]-N-isopropyl-2′-oxo-spiro[piperidine-4,3′-pyrrolo[2,3-c]pyridine]-1-carboxamide], the EC50 in data set [1] was 2.14 nM. In addition, the selectivity ratio at 3 days in data set [2] was found to be 25400.

For the compound `CC(C)NC(=O)N1CCC2(CC1)C(=O)N(Cc1nc3cc(Cl)ccc3n1CCCC#N)c1cnccc12` [Co. No. 29, 1′-[[5-chloro-1-(3-cyanopropyl)benzimidazol-2-yl]methyl]-N-isopropyl-2′-oxo-spiro[piperidine-4,3′-pyrrolo[2,3-c]pyridine]-1-carboxamide], in data set [1], the EC50 was 0.0245 nM. Further, the selectivity ratio at 3 days in data set [2] was > 4.11e+06.

The values above are taken from patent US9738652B2, “Spiro urea compounds as RSV antiviral compounds” (priority 2014, dated 2017).
